Patent publication US12637471B2, “Heterocyclic compounds, compositions, methods of preparation and uses thereof” (Organon R&D Finland Ltd, priority 2021, dated 2026)

How the values were obtained:
Format in all cases: biochemical
[1] = molecular target: T1, Recombinant human AKR1C3 (17β-HSD5) protein (Homo sapiens, UniProt P42330); assay: Inhibition of AKR1C3 (17β-hydroxysteroid dehydrogenase type 5) enzyme, fluorescence assay; conditions: inhibitor at 500 nM
T1 construct: made in house; host or cells: E. coli
T1 sequence (P42330 1-323): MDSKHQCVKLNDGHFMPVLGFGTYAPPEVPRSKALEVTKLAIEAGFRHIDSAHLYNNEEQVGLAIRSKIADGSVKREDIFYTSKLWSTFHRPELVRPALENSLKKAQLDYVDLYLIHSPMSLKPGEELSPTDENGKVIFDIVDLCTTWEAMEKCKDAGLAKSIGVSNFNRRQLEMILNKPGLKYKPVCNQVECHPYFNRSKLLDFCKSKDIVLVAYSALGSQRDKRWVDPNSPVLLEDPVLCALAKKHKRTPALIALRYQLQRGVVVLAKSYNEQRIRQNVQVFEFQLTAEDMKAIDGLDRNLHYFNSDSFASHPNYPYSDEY
Outline: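 Percent inhibition at 500 nM compound, derived from substrate conversion; product alcohol measured by fluorescence (ex 420, em 510 nm) against a 1 μM–10 nM standard curve. Reaction: 27 nM recombinant AKR1C3, 1 μM ketone substrate, 1 mM NADPH, phosphate/EDTA buffer pH 7.4, 1% DMSO, RT for 60–120 min.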

[2] = molecular target: T2, Recombinant human aldo-keto reductase family 1 member C2 (AKR1C2) protein (Homo sapiens, UniProt P52895); assay: Inhibition of the aldo-keto reductase family 1 member C2, 3H-dihydrotestosterone conversion; conditions: inhibitor at 10 μM
T2 construct: made in house; host or cells: Sf-9 insect cells (baculovirus)
T2 sequence (P52895 1-323): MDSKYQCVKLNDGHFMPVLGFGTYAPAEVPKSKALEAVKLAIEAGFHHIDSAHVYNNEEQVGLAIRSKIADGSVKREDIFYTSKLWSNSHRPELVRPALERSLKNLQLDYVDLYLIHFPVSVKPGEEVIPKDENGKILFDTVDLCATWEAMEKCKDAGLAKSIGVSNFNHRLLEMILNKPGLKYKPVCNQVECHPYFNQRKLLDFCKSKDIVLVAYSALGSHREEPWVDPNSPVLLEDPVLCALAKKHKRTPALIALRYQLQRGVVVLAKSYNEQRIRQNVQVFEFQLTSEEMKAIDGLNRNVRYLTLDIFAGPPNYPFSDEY
Outline: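 Single-point screen at 10 μM inhibitor, 1% DMSO: [3H]DHT (6.25 nM) reduction to 3α-diol by baculovirus-made AKR1C2 (13.6 nM), pH 7.4 phosphate buffer, 1 mM NADPH, 37 °C for 45 min. Radio-UPLC quantified product versus substrate to give percent inhibition.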

[3] = molecular target: T3, 17β-Hydroxysteroid Dehydrogenase Type 2 Enzyme (17β-HSD2) (Homo sapiens, UniProt P37059); assay: Inhibition of the 17β-hydroxysteroid dehydrogenase type 2 enzyme, 3H-testosterone conversion; conditions: inhibitor at 10 μM
T3 construct: made in house; host or cells: Sf-9 insect cells (baculovirus)
T3 sequence (P37059 1-387): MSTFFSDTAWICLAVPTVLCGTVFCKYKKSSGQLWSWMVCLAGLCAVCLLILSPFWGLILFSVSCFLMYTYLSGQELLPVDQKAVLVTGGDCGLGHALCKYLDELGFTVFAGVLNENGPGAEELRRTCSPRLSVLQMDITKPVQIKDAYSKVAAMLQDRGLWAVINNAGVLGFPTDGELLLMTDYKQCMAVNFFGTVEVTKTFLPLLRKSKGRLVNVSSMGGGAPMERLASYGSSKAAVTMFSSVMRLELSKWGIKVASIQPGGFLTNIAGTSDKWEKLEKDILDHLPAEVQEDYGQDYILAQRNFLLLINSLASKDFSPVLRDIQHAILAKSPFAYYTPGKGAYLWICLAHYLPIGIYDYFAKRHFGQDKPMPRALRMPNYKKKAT
Outline: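 Single-point screen at 10 μM inhibitor, 1% DMSO: Sf-9-expressed human enzyme (105 nM), NAD 1 mM, ³H-labelled testosterone 56.25 nM, pH 8.5 phosphate/EDTA buffer, 30 min, room temperature. After TCA quench, substrate and product radioactivity quantified by UPLC with scintillation detection; inhibition percent from conversion.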

SMILES	inhibition at 0.5 µM [1]	inhibition at 10 µM [2]	inhibition at 10 µM [3]
N#CC(=C1CCN(C(=O)N2CCc3[nH]cnc3C2)CC1)c1ccc(F)cc1 [Compound 24, 2-(4-fluorophenyl)-2-(1-(4,5,6,7-tetrahydro-1H-imidazo[4,5-c]pyridine-5-carbonyl)piperidin-4-ylidene)acetonitrile]	96%	8%	11%
N#CC(=C1CCN(C(=O)N2CCn3cncc3C2)CC1)c1ccc(F)c(F)c1 [Compound 44, 2-(3,4-difluorophenyl)-2-(1-(5,6,7,8-tetrahydroimidazo[1,5-a]pyrazine-7-carbonyl)piperidin-4-ylidene)acetonitrile]	103%	18%	12%
N#CC(=C1CCN(C(=O)N2CCC(O)CC2)CC1)c1ccc(F)cc1F [Compound 42, 2-(2,4-difluorophenyl)-2-(1-(4-hydroxypiperidine-1-carbonyl)piperidin-4-ylidene)acetonitrile]	96%	11%	10%
N#CC(=C1CCN(C(=O)N2CCOCC2)CC1)c1ccc(C(F)(F)F)cc1 [Compound 147, 2-(1-(morpholine-4-carbonyl)piperidin-4-ylidene)-2-(4-(trifluoromethyl)phenyl)acetonitrile]	99%	5%	4%
N#CC(=C1CCN(C(=O)N2CCc3[nH]ncc3C2)CC1)c1cc(F)cc(F)c1 [Compound 116, 2-(3,5-difluorophenyl)-2-(1-(4,5,6,7-tetrahydro-1H-pyrazolo[4,3-c]pyridine-5-carbonyl)piperidin-4-ylidene)acetonitrile]	98%	26%	12%
N#CC(=C1CCN(C(=O)N2CCn3ncnc3C2)CC1)c1ccc(F)cc1 [Compound 26, 2-(4-fluorophenyl)-2-(1-(5,6,7,8-tetrahydro-[1,2,4]triazolo[1,5-a]pyrazine-7-carbonyl)piperidin-4-ylidene)acetonitrile]	97%	6%	13%
N#CC(=C1CCN(C(=O)N2CCn3cncc3C2)CC1)c1cccc2cn[nH]c12 [Compound 72, 2-(1H-indazol-7-yl)-2-(1-(5,6,7,8-tetrahydroimidazo[1,5-a]pyrazine-7-carbonyl)piperidin-4-ylidene)acetonitrile]	98%	9%	26%
N#CC(=C1CCN(C(=O)N2CCn3ncnc3C2)CC1)c1ccc(C(F)(F)F)cc1 [Compound 152, 2-(1-(5,6,7,8-tetrahydro-[1,2,4]triazolo[1,5-a]pyrazine-7-carbonyl)piperidin-4-ylidene)-2-(4-(trifluoromethyl)phenyl)acetonitrile]	99%	4%	8%
Cn1ncc2cccc(C(C#N)=C3CCN(C(=O)N4CCc5[nH]ncc5C4)CC3)c21 [Compound 119, 2-(1-methyl-1H-indazol-7-yl)-2-(1-(4,5,6,7-tetrahydro-1H-pyrazolo[4,3-c]pyridine-5-carbonyl)piperidin-4-ylidene)acetonitrile]	99%	6%	15%
N#CC(=C1CCN(C(=O)N2CCC(CCO)CC2)CC1)c1ccc(C(F)(F)F)cc1 [Compound 149, 2-(1-(4-(2-hydroxyethyl)piperidine-1-carbonyl)piperidin-4-ylidene)-2-(4-(trifluoromethyl)phenyl)acetonitrile]	94%	7%	9%
CC(C)OC1CCN(C(=O)N2CCC(=C(C#N)c3cccc(Cl)c3)CC2)CC1 [Compound 139, 2-(3-chlorophenyl)-2-(1-(4-isopropoxypiperidine-1-carbonyl)piperidin-4-ylidene)acetonitrile]	93%	8%	27%
N#CC(=C1CCN(C(=O)N2CCC(CCO)CC2)CC1)c1ccc(Cl)cc1 [Compound 131, 2-(4-chlorophenyl)-2-(1-(4-(2-hydroxyethyl)piperidine-1-carbonyl)piperidin-4-ylidene) acetonitrile]	98%	8%	13%
CC(O)C1CCN(C(=O)N2CCC(=C(C#N)c3ccc(OC(F)(F)F)cc3)CC2)CC1 (stereo not drawn) [Compound 124, 2-(1-(4-(1-hydroxyethyl)piperidine-1-carbonyl)piperidin-4-ylidene)-2-(4-(trifluoromethoxy)phenyl)acetonitrile]	91%	4%	9%
N#CC(=C1CCN(C(=O)N2CCC(O)CC2)CC1)c1n[nH]c2ccccc12 [Compound 70, 2-(1-(4-hydroxypiperidine-1-carbonyl)piperidin-4-ylidene)-2-(1H-indazol-3-yl)acetonitrile]	97%	5%	11%
COC1CCN(C(=O)N2CCC(=C(C#N)c3cccc4[nH]ncc34)CC2)CC1 [Compound 144, 2-(1H-indazol-4-yl)-2-(1-(4-methoxypiperidine-1-carbonyl)piperidin-4-ylidene)acetonitrile]	100%	5%	16%
N#CC(=C1CCN(C(=O)N2CCCCC2)CC1)c1ccc(F)cc1 [Compound 3, 2-(4-fluorophenyl)-2-(1-(piperidine-1-carbonyl)piperidin-4-ylidene)acetonitrile]	95%	18%	28%
Cn1ncc2cccc(C(C#N)=C3CCN(C(=O)N4CCC(CO)CC4)CC3)c21 [Compound 118, 2-(1-(4-(hydroxymethyl)piperidine-1-carbonyl)piperidin-4-ylidene)-2-(1-methyl-1H-indazol-7-yl)acetonitrile]	96%	14%	30%
N#CC(=C1CCN(C(=O)N2CCC(O)CC2)CC1)c1cc(F)cc(F)c1 [Compound 58, 2-(3,5-difluorophenyl)-2-(1-(4-hydroxypiperidine-1-carbonyl)piperidin-4-ylidene)acetonitrile]	93%	6%	21%
N#CC(=C1CCN(C(=O)N2CCCCC2)CC1)c1cc(F)cc(F)c1 [Compound 10, 2-(3,5-difluorophenyl)-2-(1-(piperidine-1-carbonyl)piperidin-4-ylidene)acetonitrile]	89%	10%	4%
CCOC1CCN(C(=O)N2CCC(=C(C#N)c3ccc(C(F)(F)F)cc3)CC2)CC1 [Compound 128, 2-(1-(4-ethoxypiperidine-1-carbonyl)piperidin-4-ylidene)-2-(4-(trifluoromethyl)phenyl) acetonitrile]	93%	2%	17%
N#CC(=C1CCN(C(=O)N2CCC(CO)CC2)CC1)c1cc(F)cc(F)c1 [Compound 50, 2-(3,5-difluorophenyl)-2-(1-(4-(hydroxymethyl)piperidine-1-carbonyl)piperidin-4-ylidene)acetonitrile]	97%	16%	12%
CCOC1CCN(C(=O)N2CCC(=C(C#N)c3ccc(F)cc3)CC2)CC1 [Compound 20, 2-(1-(4-ethoxypiperidine-1-carbonyl)piperidin-4-ylidene)-2-(4-fluorophenyl)acetonitrile]	97%	2%	9%
